Test results from patent US11142525B2 (Pfizer Inc., priority 2018, dated 2021).
Where two headings read alike, the source gives them in different places.

Experiments:
[1] = test system: phospho-SLP-76 (Ser376) in Jurkat cells; test: Phospho-SLP-76 (Ser376) Homogeneous Time Resolved Fluorescence (HTRF) assay in Jurkat cells; type: cell-based; conditions: Homo sapiens, read-out: SLP76 Assay_IC50
In short: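 Phospho-SLP-76 in lysates was read by sandwich HTRF and IC50 derived by four-parameter nonlinear regression. Before lysis, cells had received compound for 30 min (11-point, 3-fold series from 10 μM, 0.1% DMSO), followed by anti-CD3 F(ab)2 complex (200 μg/mL, 15 min, 37 °C).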

[2] = target: human full-length recombinant HPK1 (Homo sapiens (Human), UniProt Q92918); test: HPK1 biochemical enzyme assay, microfluidic mobility shift assay (MSA); conditions: read-out: HPK1 Enzyme Assay_Ki
[3] = 30 min pre-treatment, anti-CD3 stimulation 15 min, HTRF
[4] = mobility shift assay, 75 μM ATP, Morrison equation, tight-binding competitive inhibition
[5] = Phospho-SLP-76 (Ser376) HTRF, anti-CD3 stimulation

Sequence of human full-length recombinant HPK1 (Q92918 whole entry): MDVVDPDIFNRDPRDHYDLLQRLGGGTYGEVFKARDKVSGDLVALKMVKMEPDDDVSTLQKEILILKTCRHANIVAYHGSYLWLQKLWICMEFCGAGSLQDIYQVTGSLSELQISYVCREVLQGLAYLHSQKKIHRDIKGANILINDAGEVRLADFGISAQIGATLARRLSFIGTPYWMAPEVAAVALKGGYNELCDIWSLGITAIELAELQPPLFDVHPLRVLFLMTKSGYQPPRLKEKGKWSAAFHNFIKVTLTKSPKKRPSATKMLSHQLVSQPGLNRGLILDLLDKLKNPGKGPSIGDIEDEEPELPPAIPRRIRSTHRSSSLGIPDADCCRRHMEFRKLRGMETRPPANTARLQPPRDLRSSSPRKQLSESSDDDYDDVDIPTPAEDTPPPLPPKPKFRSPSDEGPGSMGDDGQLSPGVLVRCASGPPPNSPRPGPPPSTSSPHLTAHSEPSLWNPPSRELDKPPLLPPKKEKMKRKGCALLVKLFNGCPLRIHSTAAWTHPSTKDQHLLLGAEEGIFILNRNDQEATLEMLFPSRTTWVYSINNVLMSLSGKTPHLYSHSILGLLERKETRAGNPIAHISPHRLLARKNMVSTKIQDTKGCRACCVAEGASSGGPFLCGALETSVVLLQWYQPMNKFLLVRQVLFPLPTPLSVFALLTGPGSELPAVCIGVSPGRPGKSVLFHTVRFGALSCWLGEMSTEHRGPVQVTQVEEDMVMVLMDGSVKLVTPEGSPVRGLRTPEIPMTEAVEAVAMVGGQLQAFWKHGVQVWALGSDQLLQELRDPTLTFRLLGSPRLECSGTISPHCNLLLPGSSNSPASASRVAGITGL

C[C@H]1COC(=O)N1c1cccc(N2Cc3c(cc(C4CC4)nc3CN)C2=O)n1 [Example 26, 4-(aminomethyl)-6-cyclopropyl-2-{6-[(4S)-4-methyl-2-oxo-1,3-oxazolidin-3-yl]pyridin-2-yl}-2,3-dihydro-1H-pyrrolo[3,4-c]pyridin-1-one]
IC50 [1, 3]: 439 nM | Ki [2, 4]: 0.9 nM

CNCc1nc(C2CC2)cc2c1CN(c1cccc(-c3nncn3C(C)C)n1)C2=O [Example 5, 6-cyclopropyl-4-[(methylamino)methyl]-2-{6-[4-(propan-2-yl)-4H-1,2,4-triazol-3-yl]pyridin-2-yl}-2,3-dihydro-1H-pyrrolo[3,4-c]pyridin-1-one]
IC50 [1, 3]: 186 nM | Ki [2, 4]: 0.39 nM

CC(C)c1cnnn1-c1cccc(N2Cc3c(cc(N(C)C)nc3CN)C2=O)n1 [Example 35, 4-(aminomethyl)-6-(dimethylamino)-2-{6-[5-(propan-2-yl)-1H-1,2,3-triazol-1-yl]pyridin-2-yl}-2,3-dihydro-1H-pyrrolo[3,4-c]pyridin-1-one]
IC50 [1, 3]: 183 nM | Ki [2, 4]: 0.12 nM

CCN(C)c1cc2c(c(CNC)n1)CN(c1cccc(-c3nncn3CC)n1)C2=O [Example 131, 6-[ethyl(methyl)amino]-2-[6-(4-ethyl-4H-1,2,4-triazol-3-yl)pyridin-2-yl]-4-[(methylamino)methyl]-2,3-dihydro-1H-pyrrolo[3,4-c]pyridin-1-one]
IC50 [1, 5]: 57 nM | Ki ([2]; HPK1 mobility shift assay): 0.11 nM

C[C@@H](CC(F)(F)F)n1cnnc1-c1cccc(N2Cc3c(cc(N(C)C)nc3CN)C2=O)n1 [Example 13, 4-(aminomethyl)-6-(dimethylamino)-2-(6-{4-[(2S)-4,4,4-trifluorobutan-2-yl]-4H-1,2,4-triazol-3-yl}pyridin-2-yl)-2,3-dihydro-1H-pyrrolo[3,4-c]pyridin-1-one]
IC50 [1, 3]: 85 nM | Ki [2, 4]: < 0.08 nM

CCC(CC)n1cnnc1-c1cccc(N2Cc3c(cc(C4CC4)nc3CNC)C2=O)n1 [Example 142, 6-cyclopropyl-4-[(methylamino)methyl]-2-{6-[4-(pentan-3-yl)-4H-1,2,4-triazol-3-yl]pyridin-2-yl}-2,3-dihydro-1H-pyrrolo[3,4-c]pyridin-1-one]
IC50 [1, 5]: 239 nM | Ki ([2]; HPK1 mobility shift assay): 0.52 nM

CNCc1nc(C2(C)CC2)cc2c1CN(c1cccc(N3C(=O)OC[C@@H]3CF)n1)C2=O [Example 91, 2-{6-[(4R)-4-(fluoromethyl)-2-oxo-1,3-oxazolidin-3-yl]pyridin-2-yl}-4-[(methylamino)methyl]-6-(1-methylcyclopropyl)-2,3-dihydro-1H-pyrrolo[3,4-c]pyridin-1-one]
IC50 [1, 5]: 257 nM | Ki ([2]; HPK1 mobility shift assay): 0.33 nM

CNCc1nc(N(C)C)cc2c1CN(c1ccc(F)c(-c3cn[nH]c3C(C)C)n1)C2=O [Example 22, 6-(dimethylamino)-2-{5-fluoro-6-[5-(propan-2-yl)-1H-pyrazol-4-yl]pyridin-2-yl}-4-[(methylamino)methyl]-2,3-dihydro-1H-pyrrolo[3,4-c]pyridin-1-one]
IC50 [1, 3]: 105 nM | Ki [2, 4]: 0.4 nM

CNCc1nc(N(C)C)cc2c1CN(c1cccc(-c3nncn3C(C)C)n1)C2=O [Example 1, 6-(dimethylamino)-4-[(methylamino)methyl]-2-{6-[4-(propan-2-yl)-4H-1,2,4-triazol-3-yl]pyridin-2-yl}-2,3-dihydro-1H-pyrrolo[3,4-c]pyridin-1-one]
IC50 [1, 3]: 112 nM | Ki [2, 4]: 0.15 nM

CCCn1cnnc1-c1cccc(N2Cc3c(cc(C4CCC4)nc3CNC)C2=O)n1 [Example 103, 6-cyclobutyl-4-[(methylamino)methyl]-2-[6-(4-propyl-4H-1,2,4-triazol-3-yl)pyridin-2-yl]-2,3-dihydro-1H-pyrrolo[3,4-c]pyridin-1-one]
IC50 [1, 5]: 199 nM | Ki ([2]; HPK1 mobility shift assay): 1.15 nM

CNCc1nc(C2(C)CC2)cc2c1CN(c1cccc(-c3nncn3C3CCC3)n1)C2=O [Example 65, 2-[6-(4-cyclobutyl-4H-1,2,4-triazol-3-yl)pyridin-2-yl]-4-[(methylamino)methyl]-6-(1-methylcyclopropyl)-2,3-dihydro-1H-pyrrolo[3,4-c]pyridin-1-one]
IC50 [1, 3]: 114 nM | Ki [2, 4]: 0.35 nM

CCCn1cnnc1-c1cccc(N2Cc3c(cc(N4[C@H](C)CC[C@H]4C)nc3CNC)C2=O)n1 [Example 105, 6-[(2R,5R)-2,5-dimethylpyrrolidin-1-yl]-4-[(methylamino)methyl]-2-[6-(4-propyl-4H-1,2,4-triazol-3-yl)pyridin-2-yl]-2,3-dihydro-1H-pyrrolo[3,4-c]pyridin-1-one]
IC50 [1, 5]: 64 nM | Ki ([2]; HPK1 mobility shift assay): 0.21 nM

CCN(CC)c1cc2c(c(CNC)n1)CN(c1cccc(-c3nnc(C)n3CC)n1)C2=O [Example 97, 6-(diethylamino)-2-[6-(4-ethyl-5-methyl-4H-1,2,4-triazol-3-yl)pyridin-2-yl]-4-[(methylamino)methyl]-2,3-dihydro-1H-pyrrolo[3,4-c]pyridin-1-one]
IC50 [1, 5]: 186 nM | Ki ([2]; HPK1 mobility shift assay): 0.34 nM

CCn1cnnc1-c1cccc(N2Cc3c(cc(N4CCC4)nc3CNC)C2=O)n1 [Example 92, 6-(azetidin-1-yl)-2-[6-(4-ethyl-4H-1,2,4-triazol-3-yl)pyridin-2-yl]-4-[(methylamino)methyl]-2,3-dihydro-1H-pyrrolo[3,4-c]pyridin-1-one]
IC50 [1, 5]: 226 nM | Ki ([2]; HPK1 mobility shift assay): 0.43 nM

CNCc1nc(C(C)(C)C)cc2c1CN(c1cccc(N3C(=O)OC[C@@H]3C)n1)C2=O [Example 39, 6-tert-butyl-4-[(methylamino)methyl]-2-{6-[(4S)-4-methyl-2-oxo-1,3-oxazolidin-3-yl]pyridin-2-yl}-2,3-dihydro-1H-pyrrolo[3,4-c]pyridin-1-one]
IC50 [1, 3]: 672 nM | Ki [2, 4]: 1.8 nM

CC(C)N(C)c1cc2c(c(CN)n1)CN(c1cccc(-c3nncn3C(C)C)n1)C2=O [Example 79, 4-(aminomethyl)-6-[methyl(propan-2-yl)amino]-2-{6-[4-(propan-2-yl)-4H-1,2,4-triazol-3-yl]pyridin-2-yl}-2,3-dihydro-1H-pyrrolo[3,4-c]pyridin-1-one]
IC50 [1, 5]: 48 nM | Ki ([2]; HPK1 mobility shift assay): < 0.05 nM

CC(C)n1cnnc1-c1cccc(N2Cc3c(cc(N4CCC[C@H]4C)nc3CN)C2=O)n1 [Example 107, 4-(aminomethyl)-6-[(2R)-2-methylpyrrolidin-1-yl]-2-{6-[4-(propan-2-yl)-4H-1,2,4-triazol-3-yl]pyridin-2-yl}-2,3-dihydro-1H-pyrrolo[3,4-c]pyridin-1-one]
IC50 [1, 5]: 22 nM | Ki ([2]; HPK1 mobility shift assay): 0.04 nM

CCCn1c(C)nnc1-c1cccc(N2Cc3c(cc(N(CC)CC)nc3CN)C2=O)n1 [Example 170]
IC50 [1, 5]: 264 nM | Ki ([2]; HPK1 mobility shift assay): 0.36 nM

NCc1nc(C2CC2)cc2c1CN(c1cccc(N3C(=O)OC[C@@H]3CF)n1)C2=O [Example 86, 4-(aminomethyl)-6-cyclopropyl-2-{6-[(4R)-4-(fluoromethyl)-2-oxo-1,3-oxazolidin-3-yl]pyridin-2-yl}-2,3-dihydro-1H-pyrrolo[3,4-c]pyridin-1-one]
IC50 [1, 5]: 652 nM | Ki ([2]; HPK1 mobility shift assay): 3.04 nM

CCn1cnnc1-c1cccc(N2Cc3c(cc(N4[C@H](C)CC[C@H]4C)nc3CN)C2=O)n1 [Example 110, 4-(aminomethyl)-6-[(2R,5R)-2,5-dimethylpyrrolidin-1-yl]-2-[6-(4-ethyl-4H-1,2,4-triazol-3-yl)pyridin-2-yl]-2,3-dihydro-1H-pyrrolo[3,4-c]pyridin-1-one]
IC50 [1, 5]: 86 nM | Ki ([2]; HPK1 mobility shift assay): 0.32 nM

CCn1cnnc1-c1cccc(N2Cc3c(cc(C4(C)CC4)nc3CNC)C2=O)n1 [Example 95, 2-[6-(4-ethyl-4H-1,2,4-triazol-3-yl)pyridin-2-yl]-4-[(methylamino)methyl]-6-(1-methylcyclopropyl)-2,3-dihydro-1H-pyrrolo[3,4-c]pyridin-1-one]
IC50 [1, 5]: 168 nM | Ki ([2]; HPK1 mobility shift assay): 0.51 nM

CCn1c(C)nnc1-c1cccc(N2Cc3c(cc(C4(C)CC4)nc3CN)C2=O)n1 [Example 127, 4-(aminomethyl)-2-[6-(4-ethyl-5-methyl-4H-1,2,4-triazol-3-yl)pyridin-2-yl]-6-(1-methylcyclopropyl)-2,3-dihydro-1H-pyrrolo[3,4-c]pyridin-1-one]
IC50 [1, 5]: 435 nM | Ki ([2]; HPK1 mobility shift assay): 1.52 nM

CCN(c1cc2c(c(CNC)n1)CN(c1cccc(N3C(=O)OC[C@@H]3CF)n1)C2=O)C(C)C [Example 98, 6-[ethyl(propan-2-yl)amino]-2-{6-[(4R)-4-(fluoromethyl)-2-oxo-1,3-oxazolidin-3-yl]pyridin-2-yl}-4-[(methylamino)methyl]-2,3-dihydro-1H-pyrrolo[3,4-c]pyridin-1-one]
IC50 [1, 5]: 514 nM | Ki ([2]; HPK1 mobility shift assay): 0.96 nM

CCn1cnnc1-c1cccc(N2Cc3c(cc(N4CCC[C@H]4C)nc3CNC)C2=O)n1 [Example 115, 2-[6-(4-ethyl-4H-1,2,4-triazol-3-yl)pyridin-2-yl]-4-[(methylamino)methyl]-6-[(2R)-2-methylpyrrolidin-1-yl]-2,3-dihydro-1H-pyrrolo[3,4-c]pyridin-1-one]
IC50 [1, 5]: 21 nM | Ki ([2]; HPK1 mobility shift assay): < 0.09 nM

CCN(c1cc2c(c(CNC)n1)CN(c1cccc(-c3nncn3C)n1)C2=O)C(C)C [Example 108, 6-[ethyl(propan-2-yl)amino]-4-[(methylamino)methyl]-2-[6-(4-methyl-4H-1,2,4-triazol-3-yl)pyridin-2-yl]-2,3-dihydro-1H-pyrrolo[3,4-c]pyridin-1-one]
IC50 [1, 5]: 583 nM | Ki ([2]; HPK1 mobility shift assay): 3.7 nM

CCC(CC)n1cnnc1-c1cccc(N2Cc3c(cc(N4CCC[C@H]4C)nc3CN)C2=O)n1 [Example 143, 4-(aminomethyl)-6-[(2R)-2-methylpyrrolidin-1-yl]-2-{6-[4-(pentan-3-yl)-4H-1,2,4-triazol-3-yl]pyridin-2-yl}-2,3-dihydro-1H-pyrrolo[3,4-c]pyridin-1-one]
IC50 [1, 5]: 28 nM | Ki ([2]; HPK1 mobility shift assay): 0.09 nM

CNCc1nc(N(C)C)cc2c1CN(c1cccc(-c3nncn3CC(C)C)n1)C2=O [Example 177]
IC50 [1, 5]: 152 nM | Ki ([2]; HPK1 mobility shift assay): 0.26 nM

Cc1nnc(-c2cccc(N3Cc4c(cc(N5CCC[C@H]5C)nc4CN)C3=O)n2)n1C(C)C [Example 156]
IC50 [1, 5]: 104 nM | Ki ([2]; HPK1 mobility shift assay): 0.19 nM
